Test results taken from US12662455B2, “Tetrahydrobenzo-quinoline sulfonamide derivatives useful as IgE modulators” (UCB Biopharma SRL, priority 2019, dated 2026).

target: T1, IgE-Tb / soluble IgE receptor FcεRIα (Y131A mutation) (Homo sapiens, UniProt P01854, C105A/N146Q/N252Q); assay: in vitro FRET assay: binding of IgE-Tb to receptor FcεRIα-Y131A-AF488 and inhibition by compounds; conditions: 5 nM IgE-Tb, 25 nM FcεRIα-Y131A-AF488, 2 hours at room temperature; read-out: FRET IC50 range
T1 construct: 86 nmoles of IgE-Fc(N265Q, N371Q) (Young et al., 1995)
Procedure: 86 nmoles of IgE-Fc(N265Q, N371Q) (Young et al., 1995) at 172 μM in 100 mM NaHCO3, pH 9.5 was added to 1 mg of LanthaScreen™ Amine Reactive Tb Chelate (ThermoFisher catalogue number PV3583) and incubated for 16 hours at 20° C. The material was then buffer exchanged into Phosphate Buffered Saline (being, 137 mM NaCl, 2.7 mM KCl, 10 mM Na2HPO4, 1.8 mM K2HPO4, pH 7.4) and the material quantified and the degree of Tb conjugation determined by measuring the absorption at 280 nm and 343 nm.
The integrity of the conjugated material was determined by analytical size exclusion chromatography on a S200 HR 10×300 column (GE Healthcare). Typical conjugation ratios were 4:1 Tb:IgE-Fc.
400 nmoles FcεR1α(Y131A mutant) (Cook et al., 1997) at 400 μM in 100 mM NaOAc pH 5.5 was reacted with 1 mM final concentration sodium periodate (in 100 mM NaOAc, pH 5.5) for 60 minutes at 22° C. Oxidation was quenched with the addition of 40 μL of ethanediol and incubation for 60 minutes at 22° C. The protein was buffer exchanged in to conjugation buffer (50 mM NaHCO3, 150 mM NaCl, pH 9.5) and concentrated to 750 μM.
175 nmoles of protein was added to 1 mg of Alexa Fluor™ 488 hydrazide (Invitrogen) and incubated for 16 hours at 22° C. Sodium cyanoborohydride (at 100 mM in conjugation buffer) was added to a final concentration of 1 mM and incubated for 60 minutes on ice. The protein was buffer exchanged into Phosphate Buffered Saline (being, 137 mM NaCl, 2.7 mM KCl, 10 mM Na2HPO4, 1.8 mM K2HPO4, pH 7.4) and the material quantified and the degree of Alexa Fluor™ 488 conjugation determined by measuring the absorption at 280 nm and 495 nm.
The integrity of the conjugated material was determined by analytical size exclusion chromatography on a S200 HR 10×300 column (GE Healthcare). Typical conjugation ratios were 2:1 Alexa Fluor™488: sFcεR1α
The aim was to measure binding of IgE-Tb to receptor, and the inhibition thereof by compounds, using an in vitro Fluorescence Resonance Energy Transfer (FRET) Assay.
FRET reagents used were IgE labelled with Terbium (FRET donor), and soluble IgE receptor FcεRIα with a Y131A mutation, labelled with Alexa Fluor™ 488 (FRET acceptor). Unlabelled FcεRIα was also used to generate a background control. The assay buffer consisted of 20 mM Tris pH7.2, 150 mM NaCl, and 0.002% Tween, 1% DMSO.
The assay was conducted according to the following: Each assay reaction was conducted in a volume of 25 μl in a 384-well half-volume plate. 10 point compound serial dilutions (3-fold) were generated in DMSO at a concentration of ×50 that of the final assay concentration (FAC). Compound solutions were then prepared by IgE-Tb diluting 10-fold in assay buffer. For the assay, 5 μl of diluted compound was added to 10 μl of, followed by addition of 10 μl FcεRIα-Y131A-AF488. FRET reagents FACs were 5 nM IgE-Tb, 25 nM FcεRIα-Y131A-AF488. Usually the top FAC of compound in the assay was 10 μM. The final DMSO concentration was 2%. The minimum signal (MIN) was measured by adding 5 μl unlabelled FcεRIα at 1 μM (FAC=200 nM) to the FRET reagents. The maximum FRET signal (MAX) was measured in wells containing FRET reagents but no compound.
The assay was incubated for 2 hours at room temperature, protected from light and evaporation, and with gentle agitation.
Measurement of FRET for each well was carried out by exciting at 330 nm and measuring emission at 495/520 nm using an Envision plate reader (Perkin Elmer). FRET ratio was calculated as follows: Emission at 520/Emission at 495×1000.
The FRET ratio was used for the data analysis.
Z′ was calculated as follows (σ=standard deviation and μ=mean): 1−((3×σ^MAX)+(3×σMIN))/(μMAX−μMIN)
Z′ above 0.5 was considered a good assay.
Background signal (MIN) was subtracted from all wells. Using the background subtracted values, the percent inhibition by compound in each test-well was calculated as follows: 100−Test-well FRET ratio/MAX FRET ratio×100.
Percent inhibition was plotted against compound concentration. […]

T1 sequence (P01854 104-428 isoform P01854-1 C105A/N146Q/N252Q): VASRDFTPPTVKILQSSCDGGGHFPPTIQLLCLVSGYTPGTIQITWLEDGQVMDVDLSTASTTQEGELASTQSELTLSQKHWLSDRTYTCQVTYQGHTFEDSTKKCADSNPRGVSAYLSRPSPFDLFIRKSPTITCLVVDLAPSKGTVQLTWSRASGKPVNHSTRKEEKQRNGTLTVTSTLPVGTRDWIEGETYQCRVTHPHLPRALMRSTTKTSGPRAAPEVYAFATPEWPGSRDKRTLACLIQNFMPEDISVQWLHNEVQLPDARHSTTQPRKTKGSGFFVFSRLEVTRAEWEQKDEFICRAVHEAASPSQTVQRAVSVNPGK

| Structure (SMILES) | IC50 |
| --- | --- |
| CC(C)CNS(=O)(=O)c1cc2c(c3cnc(C4CC4)cc13)CCCC2 [Example 1, 3-cyclopropyl-N-(2-methylpropyl)-7,8,9,10-tetrahydrobenzo[h]isoquinoline-5-sulfonamide] | 100 to 1000 nM |
| CCNC(=O)NC1CCCc2c1cc(S(=O)(=O)NCC(C)C)c1cc(C3CC3)ncc21 (stereo not drawn) [Example 2, 1-[3-cyclopropyl-5-(2-methylpropylsulfamoyl)-7,8,9,10-tetrahydrobenzo[h]isoquinolin-7-yl]-3-ethylurea] | 50 to 100 nM |
| CCNC(=O)NC1CCCc2cc(S(=O)(=O)NCC(C)C)c3cc(C4CC4)ncc3c21 (stereo not drawn) [Example 3, 1-[3-cyclopropyl-5-(2-methylpropylsulfamoyl)-7,8,9,10-tetrahydrobenzo[h]isoquinolin-10-yl]-3-ethylurea] | 100 to 1000 nM |
| CC(C)CNS(=O)(=O)c1cc2c(c3cnc(C4CC4)cc13)CCCC2NS(C)(=O)=O (stereo not drawn) [Example 4, 3-cyclopropyl-7-(methanesulfonamido)-N-(2-methylpropyl)-7,8,9,10-tetrahydrobenzo[h]isoquinoline-5-sulfonamide] | 100 to 1000 nM |
| CC(C)CNS(=O)(=O)c1cc2c(c3cnc(C4CC4)cc13)C(NS(C)(=O)=O)CCC2 (stereo not drawn) [Example 5, 3-cyclopropyl-10-(methanesulfonamido)-N-(2-methylpropyl)-7,8,9,10-tetrahydrobenzol[h]isoquinoline-5-sulfonamide] | 1000 to 5000 nM |
| Cn1nnc(-c2ccc(NC3CCCc4c3cc(S(=O)(=O)NCC(C)(C)F)c3cc(C5CC5)ncc43)cn2)n1 (stereo not drawn) [Example 6] | 10 to 50 nM |
| Cc1cc(Nc2nncn2C2CCCc3c2cc(S(=O)(=O)NCC(C)(C)F)c2cc(C4CC4)ncc32)n(C)n1 (stereo not drawn) [Example 7, 3-cyclopropyl-7-[3-[(2,5-dimethylpyrazol-3-yl)amino]-1,2,4-triazol-4-yl]-N-(2-fluoro-2-methylpropyl)-7,8,9,10-tetrahydrobenzo[h]isoquinoline-5-sulfonamide] | 100 to 1000 nM |
| Cn1nnc(-c2ccc(NC3CCCc4cc(S(=O)(=O)NCC(C)(C)F)c5cc(C6CC6)ncc5c43)cn2)n1 (stereo not drawn) [Example 8, 3-cyclopropyl-N-(2-fluoro-2-methylpropyl)-10-[[6-(2-methyltetrazol-5-yl)pyridin-3-yl]amino]-7,8,9,10-tetrahydrobenzo[h]isoquinoline-5-sulfonamide] | 100 to 1000 nM |
| CCOC(=O)c1ncn(C2CCCc3c2cc(S(=O)(=O)NCC(C)(C)F)c2cc(C4CC4)ncc32)c1N (stereo not drawn) [Example 9, ethyl 5-amino-1-[3-cyclopropyl-5-[(2-fluoro-2-methylpropyl)sulfamoyl]-7,8,9,10-tetrahydrobenzo[h]isoquinolin-7-yl]imidazole-4-carboxylate] | 100 to 1000 nM |
| Cc1noc(-c2cncc(NC3CCCc4c3cc(S(=O)(=O)NCC(C)(C)F)c3cc(C5CC5)ncc43)c2)n1 (stereo not drawn) [Example 10, 3-cyclopropyl-N-(2-fluoro-2-methylpropyl)-7-[[5-(3-methyl-1,2,4-oxadiazol-5-yl)pyridin-3-yl]amino]-7,8,9,10-tetrahydrobenzo[h]isoquinoline-5-sulfonamide] | 50 to 100 nM |
| Cc1cc(NC(=O)NC2CCCc3c2cc(S(=O)(=O)NCC(C)(C)F)c2cc(C4CC4)ncc32)n(C)n1 (stereo not drawn) [Example 11, 1-[3-cyclopropyl-5-[(2-fluoro-2-methylpropyl)sulfamoyl]-7,8,9,10-tetrahydrobenzo[h]isoquinolin-7-yl]-3-(2,5-dimethylpyrazol-3-yl) urea] | 100 to 1000 nM |
| CCOC(=O)c1cn(C2CCCc3c2cc(S(=O)(=O)NCC(C)(C)F)c2cc(C4CC4)ncc32)cn1 (stereo not drawn) [Example 12, ethyl 1-[3-cyclopropyl-5[(2-fluoro-2-methylpropyl)sulfamoyl]-7,8,9,10-tetrahydrobenzo[h]isoquinolin-7-yl]imidazole-4-carboxylate] | 100 to 1000 nM |
